Test results as given in US20130045983A1, “HSP90 INHIBITORS FOR THERAPEUTIC TREATMENT” (Novartis AG, priority 2008, published 2013).

Assays:
Assay type in all cases: cell-based
OVXF 899 = test: Clonogenic assay, OVXF 899; settings: Homo sapiens, Ovary, Pap. serous adenocarcinoma, soft agar, read-out: IC50 (colony formation)
Experimental: (§1) The anticancer activity of (R)-2-amino-7-[2-(6-methoxy-pyridin-2-yl)-phenyl]-4-methyl-7,8-dihydro-6H-pyrido[4,3-d]pyrimidin-5-one is evaluated in 30 human tumor xenografts in vitro using a clonogenic assay. In this assay, human cells derived from cancer patients are evaluated for the capacity of (R)-2-amino-7-[2-(6-methoxy-pyridin-2-yl)-phenyl]-4-methyl-7,8-dihydro-6H-pyrido[4,3-d]pyrimidin-5-one to inhibit the formation of 3 dimensional colonies. […] The tumor xenografts which have never been cultured in cell culture plastic dishes are isolated from nude mice. Tumor cell suspensions are prepared and incubated in 24 well plates containing layers of soft agar. Under these conditions a special subpopulation of cells selectively grows to colonies. (R)-2-amino-7-[2-(6-methoxy-pyridin-2-yl)-phenyl]-4-methyl-7,8-dihydro-6H-pyrido[4,3-d]pyrimidin-5one is tested in 6 concentrations up to 1000 nM. The tumor test panel comprises 1 to 10 models of 12 different human tumor types, which were bladder cancer, colon, gastric, non small cell lung (adeno, squamous cell, and large cell), small cell lung, mammary, ovary, and prostate cancer, as well as leukemia, lymphoma, melanoma, and sarcoma. Antitumor effects are recorded as inhibition of colony formation in relation to untreated controls. […]

LEXF JURKAT = test: Clonogenic assay, LEXF JURKAT; settings: Homo sapiens, Leukemia, T cell leukemia, soft agar, read-out: IC50 (colony formation)
Experimental: as §1

LXFA 289 = test: Clonogenic assay, LXFA 289; settings: Homo sapiens, Lung, non-small cell, Adenocarcinoma, soft agar, read-out: IC50 (colony formation)
Experimental: as §1

CXF 1103 = test: Clonogenic assay, CXF 1103; settings: Homo sapiens, CXF1103, Colon, Adenocarcinoma, soft agar, read-out: IC50 (colony formation)
Experimental: as §1

LXFS 660 = test: Clonogenic assay, LXFS 660; settings: Homo sapiens, Lung, small cell, Small cell lung carcinoma, soft agar, read-out: IC50 (colony formation)
Experimental: as §1

MAXF 713 = test: Clonogenic assay, MAXF 713; settings: Homo sapiens, Breast, Adenocarcinoma, soft agar, read-out: IC50 (colony formation)
Experimental: as §1

SKBR3 = test: Cell proliferation assay, SKBR3 (breast); settings: Homo sapiens, SK-BR-3, 72 hours in presence of compound
Experimental: (§2) Seventeen cancer derived cell lines are used (GTL-16, N87, H1975, A549, H69, A2780, PC3, BT474, SKBR3, MCF-7, A375, MV4;11, K562, KM12L4A, H929, OPM-2 and KMS-11) to test the effect of (R)-2-amino-7-[2-(6-methoxy-pyridin-2-yl)-phenyl]-4-methyl-7,8-dihydro-6H-pyrido[4,3-d]pyrimidin-5-one. These cell lines cover the following 9 tumor types: Gastric, Lung, Ovarian, Prostate, Breast, Melanoma, Leukemia, Colon and Multiple myeloma. After division and medium change, cells from stock culture are seeded on cell plates and cultured for about 18 hours to allow cell growth and attachment before starting the assay. Then on the first day of the assay, (R)-2-amino-7-[2-(6-methoxy-pyridin-2-yl)-phenyl]-4-methyl-7,8-dihydro-6H-pyrido[4,3-d]pyrimidin-5-one is added to the medium at various concentrations. Cells are cultured up to 72 or 96 hours and cell proliferation is determined using commercially available cell proliferation kits.
(§3) Table 1 relates to the concentration in nM of (R)-2-amino-7-[2-(6-methoxy-pyridin-2-yl)-phenyl]-4-methyl-7,8-dihydro-6H-pyrido[4,3-d]pyrimidin-5-one which inhibits cell proliferation by 50% (IC50). […]

LXFA 629 = test: Clonogenic assay, LXFA 629; settings: Homo sapiens, Lung, non-small cell, Adenocarcinoma, soft agar, read-out: IC50 (colony formation)
Experimental: as §1

CXF 214 = test: Clonogenic assay, CXF 214; settings: Homo sapiens, Stomach, Adenocarcinoma, soft agar, read-out: IC50 (colony formation)
Experimental: as §1

LXFA 526 = test: Clonogenic assay, LXFA 526; settings: Homo sapiens, Lung, non-small cell, Adenocarcinoma, soft agar, read-out: IC50 (colony formation)
Experimental: as §1

OPM-2 = test: Cell proliferation assay, OPM-2 (multiple myeloma); settings: Homo sapiens, 72 hours in presence of compound
Experimental: as §2, §3

LEXF MOLT4 = test: Clonogenic assay, LEXF MOLT4; settings: Homo sapiens, MOLT-4, Leukemia, ALL, T lymphoblast, soft agar, read-out: IC50 (colony formation)
Experimental: as §1

K562 = test: Cell proliferation assay, K562 (leukemia); settings: Homo sapiens, 72 hours in presence of compound
Experimental: as §2, §3

H929 = test: Cell proliferation assay, H929 (multiple myeloma); settings: Homo sapiens, NCI-H929, 72 hours in presence of compound
Experimental: as §2, §3

LXFL 1647 = test: Clonogenic assay, LXFL 1647; settings: Homo sapiens, Lung, non-small cell, Large cell lung carcinoma, soft agar, read-out: IC50 (colony formation)
Experimental: as §1

N87 = test: Cell proliferation assay, N87 (gastric); settings: 72 hours in presence of compound
Experimental: as §2, §3

SXF 1410 = test: Clonogenic assay, SXF 1410; settings: Homo sapiens, Sarcoma, Fibroblastic osteosarcoma, soft agar, read-out: IC50 (colony formation)
Experimental: as §1

BXF 1258 = test: Clonogenic assay, BXF 1258; settings: Homo sapiens, Bladder, Transitional cell carcinoma, soft agar, read-out: IC50 (colony formation)
Experimental: as §1

PRXF PC3M = test: Clonogenic assay, PRXF PC3M; settings: Homo sapiens, PC-3M, Prostate, Adenocarcinoma, metastatic, soft agar, read-out: IC50 (colony formation)
Experimental: as §1

MAXF 583 = test: Clonogenic assay, MAXF 583; settings: Homo sapiens, Breast, Ductual adenocarcinoma, soft agar, read-out: IC50 (colony formation)
Experimental: as §1

COc1cccc(-c2ccccc2[C@H]2Cc3nc(N)nc(C)c3C(=O)N2)n1 [(R)-2-amino-7-[2-(6-methoxy-pyridin-2-yl)-phenyl]-4-methyl-7,8-dihydro-6H-pyrido[4,3-d]pyrimidin-5-one]
IC50 (OVXF 899): > 100 nM | IC50 (LEXF JURKAT): 4 nM | IC50 (LXFA 289): 639 nM | IC50 (CXF 1103): 27 nM | IC50 (LXFS 660): 6 nM | IC50 (MAXF 713): > 1000 nM | GI50 (SKBR3): 18 nM | IC50 (LXFA 629): 27 nM | IC50 (CXF 214): > 1000 nM | IC50 (LXFA 526): 36 nM | GI50 (OPM-2): 13 nM | IC50 (LEXF MOLT4): 21 nM | GI50 (K562): 24 nM | GI50 (H929): 20 nM | IC50 (LXFL 1647): 203 nM | GI50 (N87): 12 nM | IC50 (SXF 1410): > 1000 nM | IC50 (BXF 1258): 316 nM | IC50 (PRXF PC3M): 276 nM | IC50 (MAXF 583): 24 nM
